Key:
[1] = tested on: p21^CIP1/WAF1 and p27^KIP1 mRNA; assay: Quantitative real-time RT-PCR for p21CIP1/WAF1 and p27KIP1 in Hs578T cells; type: cell-based, human; conditions: normalized to 18S rRNA; vs control, P<0.05
Method: Total RNA was extracted and purified with TRIZOL Reagent (GIBCO Invitrogen, Carlsbad, Calif.). The first-strand complementary DNA (cDNA) synthesis was achieved using a commercially available kit (New England BioLabs, Beverly, Mass.) according to the protocol from the manufacturer. Briefly, 1 μg of total RNA was reverse-transcribed using M-MuLV reverse transcriptase (25 U) and dT23VN primer (5 μM) in a final volume of 25 μl.
Quantitative real-time reverse-transcription polymerase chain reaction (RT-PCR) cDNA samples were diluted to appropriate concentrations and used for a real-time RT-PCR assay in a volume of 25 μl, containing 2 μl DNA template, 12.5 μl SYBR® Green PCR Master Mix (Applied Biosystems, Foster City, Calif.) and 0.4 μM each specific primer. The gene expression of p21^CIP1/WAF1 and p27^KIP1 were determined by real-time quantitative RT-PCR and the house-keeping gene 18S ribosomal RNA (rRNA) was used as an internal control to normalize the variable RNA loading in each sample. […] The fluorescence intensity corresponding to the CT was used to quantitate the target cDNA in the mixture of samples with […] dilutions, employing the standard curve for each target gene. Sequence Detector Software (Applied Biosystems) was used to extract the data of the quantitative real-time RT-PCR. […]

Rho mRNA = assay: RT-PCR for RhoA, RhoB, RhoC in Hs578T cells; type: cell-based, human
Method: In total, 30-40% confluent Hs578T cells were treated with stearate (50 μM) for 48 hours after starvation for 24 hours. Total RNA was extracted and reverse-transcribed as described in RT-PCR for p21^CIP1/WAF1 and p27^[…]. The PCR assay was performed in a volume of 50 μl, containing 4μl DNA template, 45 μl Platinum PCR Supermix (Invitrogen) and 0.2 μM each specific primer. PCR specificity and efficiency were improved by using hot start PCR with 3 min pre-denaturation, at 95° C., and 30 cycles of denaturation (95° C., 30 s), annealing (52° C., 30 s) and 1 min extension (72° C.). The PCR products (20 INS>μl) were analyzed by means of 1% agarose in tris-acetate ethylenediaminetetraacetic acid gel electrophoresis and visualized by ethidium bromide staining under ultraviolet; digital images were analyzed by means of a FUJI Medical System (FUJIFILM) and the bands quantified by Quantity Software (FUJIFILM). […] was used to normalize the variable RNA loading in each sample. The calculated result represents the relative expression levels of target genes compared with its expression in the control group after the value of target genes was normalized to GAPDH expression levels.

3T3L1 cells = assay: 3T3L1 cell differentiation (oil red O staining); type: cell-based, mouse; conditions: 50 μM during differentiation
Method: 3T3L1 mouse fibroblast cells (ATCC, CL-173™) were maintained according to the manufacture's protocol, in Dulbecco's modified eagle's medium (DMEM) containing 10% Fetal Bovine Serum and antibiotics (M1 medium). Adipocyte differentiation was performed according to standard procedures (42). Briefly, the 3T3L1 fibroblasts were seeded at 30% confluence and allowed to grow to near 100% confluence. On the day after reaching maximum confluence, conversion was induced by replacing the M1 medium with M1 medium containing insulin (5 μg/ml), dexamethasone (0.25 μM), and 3-isobutyl-1-methyl-xanthine (0.5 mM). After 2 days, the cells were changed to M1 medium with insulin (5 μg/ml) for an additional 2 days. […]
50 μM of stearate, oleate or linoleate was used to treat 3T3L1 cells as this concentration is centered within the normal range for non-esterified stearate in the plasma of humans. […] The concentration of stearate in the solution was detected by use of a NEFA C kit. […]
Cellular lipids were stained with oil red O. Briefly, identical numbers of 3T3L1 cells were placed in 6-well plates, cultured and converted to adipocytes as described above. […] 200 cells were counted under the microscope in each sample, and the percentage of converted adipocytes was calculated. […] The oil red O was then eluted with 1 ml 100% isopropanol, and the OD was measured at 520 nm in a spectrophotometer.

CCCCCCCCCCCCCCCCCC(=O)O [stearate, Stearic acid]
p21^CIP1/WAF1 mRNA expression [1]: increased
Rho mRNA expression (Rho mRNA; over 24 h): neither EGF nor stearate affected
RhoA mRNA expression (Rho mRNA; stearate 50 μM for 48 h): significantly decreased
RhoB mRNA expression (Rho mRNA; stearate 50 μM for 48 h): remained unchanged
RhoC mRNA expression (Rho mRNA; stearate 50 μM for 48 h): significantly decreased
Total Rho mRNA expression (Rho mRNA; stearate 50 μM for 48 h): significantly decreased
Oil red O eluted, OD value (3T3L1 cells): no difference
Percentage of differentiated adipocytes (3T3L1 cells; vs control): no significant difference
